Like-named read-outs stand apart in the source and are kept apart here.
Columns and labels:
PRS enzyme = target: T1, PRS enzyme (Homo sapiens, UniProt P07814); experiment: PRS enzyme activity inhibition experiment; type: biochemical
T1 construct: the portion corresponding to PRS in cDNA of EPRS was subcloned; made in house
T1 sequence (P07814 1007-1512 limits assumed): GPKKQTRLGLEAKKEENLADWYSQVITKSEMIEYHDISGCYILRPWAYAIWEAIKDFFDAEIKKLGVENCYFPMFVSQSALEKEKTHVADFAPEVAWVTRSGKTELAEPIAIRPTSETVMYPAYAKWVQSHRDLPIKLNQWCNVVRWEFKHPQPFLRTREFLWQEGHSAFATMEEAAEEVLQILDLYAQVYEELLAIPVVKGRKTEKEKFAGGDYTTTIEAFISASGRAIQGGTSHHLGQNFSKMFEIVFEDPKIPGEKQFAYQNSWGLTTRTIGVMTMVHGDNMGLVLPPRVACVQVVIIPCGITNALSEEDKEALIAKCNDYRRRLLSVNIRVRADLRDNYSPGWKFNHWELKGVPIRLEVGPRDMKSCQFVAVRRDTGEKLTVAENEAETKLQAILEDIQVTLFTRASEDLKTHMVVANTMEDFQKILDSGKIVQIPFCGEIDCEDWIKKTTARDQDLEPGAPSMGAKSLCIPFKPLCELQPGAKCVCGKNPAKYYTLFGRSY
Procedure: Specifically, the portion corresponding to PRS in cDNA of EPRS was subcloned, and the obtained high-purity PRS protein was purified and used in the experiment. The compounds (1 μM) prepared in Examples were added into the reaction buffer (20 mM KPO4 (pH 7.4), 6 mM MgAc, 5 mM ATP, […] tRNA, 0.5 mM DTT, […][^3H]proline (1 mCi/mL)) and allowed to react at 37° C. for 5 to 10 minutes. The reaction was terminated with 3M paper that was in advance dried by addition of 5% TCA. The radioactivity was measured using a liquid scintillation counter.
% Inhibition and IC50 values of the respective compounds were calculated and analyzed using Microsoft Excel or Sigma Plot 8.0. In Table 1, the results are divided into A, B and C according to the range of IC50.

NCI-H460 cells = experiment: Cancer cell growth inhibition experiment (MTT assay); type: cell-based; settings: Homo sapiens, lung cancer cell line, compounds 48 hours, cell viability by MTT assay
Procedure: NCl-H460 cells, lung cancer cell lines, were cultured in 5% CO2, 37° C. incubator using a flask for 75 cm^2 tissue culture. 96-well plates were used for the evaluation. These were prepared by differently applying at concentrations in the range of 6,000 to 12,000 cells/well according to the growth rate of the cell lines. The medium containing 5% FBS were dispensed in 200 μL/well and used. The medium were cultured for 24 hours. After confirming the cell status and dispensing form of a 96-well plate under a microscope, they were used for subsequent experiments. The compounds were evaluated at concentrations of 100, 30, 10, 3, 1, 0.3, 0.03, 0.01 μM. After removing the existing medium, the compounds with various concentrations were treated in an amount of 200 μL/well. The compounds-treated plates were further cultured for 48 hours, and the cell viabilities were measured by MTT assay to calculate IC50 values.
% Inhibition and IC50 values of the respective compounds were calculated and analyzed using Sigma Plot 8.0. In Table 2, the results are divided into A, B and C according to the range of IC50. The case where the derived IC50 is 3 μM or less is represented by “A”, the case where the IC50 is 3 to 10 μM is represented by “B”, and the case where the IC50 is 10 μM or higher is represented by “C”.

[1] = purified PRS protein subcloned from EPRS cDNA, [3H]proline, 37° C., 5 to 10 minutes, liquid scintillation counter, read-out: PRS IC50

SMILES	IC50 (PRS enzyme; [1])	IC50 (NCI-H460 cells)	IC50 (PRS enzyme)
O=C(C[C@H]1NCCC[C@@H]1O)Cn1cnc2nc(-c3cccc(C(F)(F)F)c3)ccc21 [Example 13, 1-((2R,3S)-3-hydroxypiperidin-2-yl)-3-(5-(3-(trifluoromethyl)phenyl)-1H-imidazo[4,5-b]pyridin-1-yl)propan-2-one]	> 500 nM	–	–
O=C(C[C@H]1NCCC[C@@H]1O)Cn1cnc2nc(-c3ccccc3F)ccc21 [Example 9, 1-(5-(2-fluorophenyl)-1H-imidazo[4,5-b]pyridin-1-yl)-3-((2R,3S)-3-hydroxypiperidin-2-yl)propan-2-one]	> 500 nM	–	–
O=C(C[C@H]1NCCC[C@@H]1O)Cn1cnc2c(-c3cccc(Cl)c3)nccc21 [Example 3, 1-(4-(3-chlorophenyl)-1H-imidazo[4,5-c]pyridin-1-yl)-3-((2R,3S)-3-hydroxypiperidin-2-yl)propan-2-one]	> 500 nM	–	–
O=C(C[C@H]1NCCC[C@@H]1O)Cn1c(CO)nc2cc(-c3ccccc3)ccc21 [Example 55, 1-(2-(hydroxymethyl)-5-phenyl-1H-benzo[d]imidazol-1-yl)-3-((2R,3S)-3-hydroxypiperidin-2-yl)propan-2-one]	–	–	> 500 nM
O=C(C[C@H]1NCCC[C@@H]1O)Cn1cnc2nc(-c3cccc(Cl)c3)ccc21 [Example 12, 1-(5-(3-chlorophenyl)-1H-imidazo[4,5-b]pyridin-1-yl)-3-((2R,3S)-3-hydroxypiperidin-2-yl)propan-2-one]	> 500 nM	–	–
O=C(C[C@H]1NCCC[C@@H]1O)Cn1cnc2c(-c3cccc(F)c3)nccc21 [Example 2, 1-(4-(3-fluorophenyl)-1H-imidazo[4,5-c]pyridin-1-yl)-3-((2R,3S)-3-hydroxypiperidin-2-yl)propan-2-one]	> 500 nM	–	–
O=C(C[C@H]1NCCC[C@@H]1O)Cn1cnc2cc(-c3cccc(C(F)(F)F)c3)cnc21 [Example 15, 1-((2R,3S)-3-hydroxypiperidin-2-yl)-3-(6-(3-(trifluoromethyl)phenyl)-3H-imidazo[4,5-b]pyridin-3-yl)propan-2-one]	> 500 nM	–	–
O=C(C[C@H]1NCCC[C@@H]1O)Cn1cnc2c(-c3cc(F)cc(Cl)c3)nccc21 [Example 5, 1-(4-(3-chloro-5-fluorophenyl)-1H-imidazo[4,5-c]pyridin-1-yl)-3-((2R,3S)-3-hydroxypiperidin-2-yl)propan-2-one]	> 500 nM	–	–
O=C(C[C@H]1NCCC[C@@H]1O)Cn1cnc2c(N3CCCC3)nccc21 [Example 7, 1-((2R,3S)-3-hydroxypiperidin-2-yl)-3-(4-(pyrrolidin-1-yl)-1H-imidazo[4,5-c]pyridin-1-yl)propan-2-one]	–	≥ 10000 nM	–
O=C(C[C@H]1NCCC[C@@H]1O)Cn1cnc2c(-c3cc(Cl)cc(Cl)c3)nccc21 [Example 6, 1-(4-(3,5-dichlorophenyl)-1H-imidazo[4,5-c]pyridin-1-yl)-3-((2R,3S)-3-hydroxypiperidin-2-yl)propan-2-one]	> 500 nM	–	–
O=C(C[C@H]1NCCC[C@@H]1O)Cn1cnc2nc(-c3ccc(F)cc3)ccc21 [Example 11, 1-(5-(4-fluorophenyl)-1H-imidazo[4,5-b]pyridin-1-yl)-3-((2R,3S)-3-hydroxypiperidin-2-yl)propan-2-one]	> 500 nM	–	–
O=C(C[C@H]1NCCC[C@@H]1O)Cn1cnc2c(-c3cccc(C(F)(F)F)c3)nccc21 [Example 4, 1-((2R,3S)-3-hydroxypiperidin-2-yl)-3-(4-(3-(trifluoromethyl)phenyl)-1H-imidazo[4,5-c]pyridin-1-yl)propan-2-one]	> 500 nM	–	–
O=C(C[C@H]1NCCC[C@@H]1O)Cn1cnc2nc(-c3cccc(F)c3)ccc21 [Example 10, 1-(5-(3-fluorophenyl)-1H-imidazo[4,5-b]pyridin-1-yl)-3-((2R,3S)-3-hydroxypiperidin-2-yl)propan-2-one]	> 500 nM	–	–

Further lines, with some results ahead:

IC50 (PRS enzyme; [1])	IC50 (NCI-H460 cells)	SMILES	IC50 (PRS enzyme)
100 to 500 nM	≥ 10000 nM	O=C(C[C@H]1NCCC[C@@H]1O)Cn1cnc2cccc(-c3ccccc3)c21 [Example 48, 1-((2R,3S)-3-hydroxypiperidin-2-yl)-3-(7-phenyl-1H-benzo[d]imidazol-1-yl)propan-2-one]	–
100 to 500 nM	≤ 3000 nM	O=C(C[C@H]1NCCC[C@@H]1O)Cn1c(CO)nc2ccc(-c3cccc(C(F)(F)F)c3)cc21 [Example 61, 1-(2-(hydroxymethyl)-6-(3-(trifluoromethyl)phenyl)-1H-benzo[d]imidazol-1-yl)-3-((2R,3S)-3-hydroxypiperidin-2-yl)propan-2-one]	–
< 100 nM	≤ 3000 nM	O=C(C[C@H]1NCCC[C@@H]1O)Cn1cnc2ccc(-c3cccc(F)c3)cc21 [Example 25, 1-(6-(3-fluorophenyl)-1H-benzo[d]imidazol-1-yl)-3-((2R,3S)-3-hydroxypiperidin-2-yl)propan-2-one]	–
< 100 nM	≥ 10000 nM	O=C(C[C@H]1NCCC[C@@H]1O)Cn1cnc2ccc(-c3cn[nH]c3)cc21 [Example 37, 1-(6-(1H-pyrazol-4-yl)-1H-benzo[d]imidazol-1-yl)-3-((2R,3S)-3-hydroxypiperidin-2-yl)propan-2-one]	–
< 100 nM	≤ 3000 nM	O=C(C[C@H]1NCCC[C@@H]1O)Cn1cnc2cccc(-c3cccc(F)c3)c21 [Example 49, 1-(7-(3-fluorophenyl)-1H-benzo[d]imidazol-1-yl)-3-((2R,3S)-3-hydroxypiperidin-2-yl)propan-2-one]	–
< 100 nM	≥ 10000 nM	OC(C[C@H]1NCCC[C@@H]1O)Cn1cnc2ccc(-c3cccc(Cl)c3)nc21 (stereo partly drawn) [Example 62, (2R,3S)-2-(3-(5-(3-chlorophenyl)-3H-imidazo[4,5-b]pyridin-3-yl)-2-hydroxypropyl)piperidin-3-ol]	–
< 100 nM	3000 to 10000 nM	O=C(C[C@H]1NCCC[C@@H]1O)Cn1c(CO)nc2ccc(-c3ccccc3)cc21 [Example 57, 1-(2-(hydroxymethyl)-6-phenyl-1H-benzo[d]imidazol-1-yl)-3-((2R,3S)-3-hydroxypiperidin-2-yl)propan-2-one]	–
< 100 nM	≤ 3000 nM	O=C(C[C@H]1NCCC[C@@H]1O)Cn1cnc2ccc(-c3cccc(C(F)(F)F)c3)cc21 [Example 29, 1-((2R,3S)-3-hydroxypiperidin-2-yl)-3-(6-(3-(trifluoromethyl)phenyl)-1H-benzo[d]imidazol-1-yl)propan-2-one]	–
100 to 500 nM	≥ 10000 nM	O=C(C[C@H]1NCCC[C@@H]1O)Cn1cnc2cccc(-c3cccc(Cl)c3)c21 [Example 50, 1-(7-(3-chlorophenyl)-1H-benzo[d]imidazol-1-yl)-3-((2R,3S)-3-hydroxypiperidin-2-yl)propan-2-one]	–
100 to 500 nM	≤ 3000 nM	O=C(C[C@H]1NCCC[C@@H]1O)Cn1cnc2ccc(-c3ccccc3F)nc21 [Example 43, 1-(5-(2-fluorophenyl)-3H-imidazo[4,5-b]pyridin-3-yl)-3-((2R,3S)-3-hydroxypiperidin-2-yl)propan-2-one]	–
> 500 nM	–	O=C(C[C@H]1NCCC[C@@H]1O)Cn1cnc2cccc(-c3ccccc3C(F)(F)F)c21 [Example 52, 1-((2R,3S)-3-hydroxypiperidin-2-yl)-3-(7-(2-(trifluoromethyl)phenyl)-1H-benzo[d]imidazol-1-yl)propan-2-one]	–
100 to 500 nM	–	O=C(C[C@H]1NCCC[C@@H]1O)Cn1cnc2ncc(-c3cccc(C(F)(F)F)c3)cc21 [Example 42, 1-((2R,3S)-3-hydroxypiperidin-2-yl)-3-(6-(3-(trifluoromethyl)phenyl)-1H-imidazo[4,5-b]pyridin-1-yl)propan-2-one]	–
> 500 nM	–	O=C(C[C@H]1NCCC[C@@H]1O)Cn1cnc2cccc(-c3cccc(C(F)(F)F)c3)c21 [Example 53, 1-((2R,3S)-3-hydroxypiperidin-2-yl)-3-(7-(3-(trifluoromethyl)phenyl)-1H-benzo[d]imidazol-1-yl)propan-2-one]	–
